The substances below were run against T1, KV3.4 channels (Homo sapiens, UniProt Q03721) (assay: Whole-cell patch clamp of Kv3.4 currents in CHO cells transiently transfected with Kv3.4/MiRP2). Conditions: peptide 100 nM, acute application; CHO cells transfected with Kv3.4/MiRP2; whole-cell patch clamp.
T1 construct: expressed in transfected cells; host or cells: CHO cells, transient transfection with Lipofectamine 2000; cDNAs provided by Professor Goldstein, University of Chicago
T1 sequence (Q03721 1-635): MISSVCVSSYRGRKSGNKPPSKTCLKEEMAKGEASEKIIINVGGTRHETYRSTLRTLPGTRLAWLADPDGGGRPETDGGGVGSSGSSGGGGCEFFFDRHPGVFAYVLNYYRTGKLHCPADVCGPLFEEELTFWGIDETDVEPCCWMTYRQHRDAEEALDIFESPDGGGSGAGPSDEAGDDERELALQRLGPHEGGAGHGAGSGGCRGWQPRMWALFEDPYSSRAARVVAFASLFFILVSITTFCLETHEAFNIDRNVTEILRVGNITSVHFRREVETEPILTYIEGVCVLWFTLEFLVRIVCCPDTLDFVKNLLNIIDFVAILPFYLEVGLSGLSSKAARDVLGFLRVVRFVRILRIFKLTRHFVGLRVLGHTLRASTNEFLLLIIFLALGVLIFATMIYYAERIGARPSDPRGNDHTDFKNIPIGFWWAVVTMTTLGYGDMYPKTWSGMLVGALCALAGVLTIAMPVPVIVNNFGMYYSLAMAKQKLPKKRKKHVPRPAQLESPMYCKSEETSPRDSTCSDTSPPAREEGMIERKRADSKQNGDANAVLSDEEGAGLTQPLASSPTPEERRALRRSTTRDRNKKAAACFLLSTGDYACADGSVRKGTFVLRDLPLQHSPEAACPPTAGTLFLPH
T1 sequence (Q9Y6H6 1-103 partner): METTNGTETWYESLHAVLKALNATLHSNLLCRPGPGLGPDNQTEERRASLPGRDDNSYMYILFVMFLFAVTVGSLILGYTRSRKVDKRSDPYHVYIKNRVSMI
Type: cell-based
Description: KV3.4 and MiRP2 channel subunits were expressed in Chinese hamster ovary (CHO) cells by transient transfection. CHO cells were grown in 100 mm plastic Petri dishes in Dulbecco's Modified Eagle Medium containing 10% fetal bovine serum (FBS), non-essential amino acids (0.1 mm), penicillin (50 U/ml), and streptomycin (50 μg/ml) in a humidified atmosphere at 37°C with 5% CO2 (Miceli et al., [2015]). KV3.4 and MiRP2 cDNAs were kindly provided by the Professor Goldstein of the Department of Pediatrics and Institute for Molecular Pediatric Sciences, University of Chicago, USA. For electrophysiological experiments, cells were seeded on glass cover-slips (Glaswarenfabrik Karl Hecht KG, Sondheim, Germany) coated with poly-L-lysine (50 μg/mL) and transfected the next day with the appropriate cDNAs using Lipofectamine 2000 according to guidelines for transfection. We performed electrophysiological experiments 48 h after transfection.
Currents from CHO cells were recorded at room temperature 1-2 days after transfection. The extracellular solution contained the following (in mM): 138 NaCl, 5.4 KCl, 2 CaCl2, 1 MgCl2, 10 glucose and 10 HEPES, adjusted pH 7.4 with NaOH. The pipette solution contained (in mM) the following: 140 KCl, 2 MgCl2, 10 EGTA, 10 HEPES, 5 Mg-ATP, adjusted pH 7.4 with KOH (Miceli et al., [2015]). KV3.4 currents were measured by applying voltage steps from −100 mV to +60 mV from a holding potential of −80 mV (Abbott et al., [2001]). Moreover, the total outward K^+ currents were recorded in NGF-differentiated PC-12 cells using the extracellular solution contained the following (in mM): 150 NaCl, 5.4 KCl, 3 CaCl2, 1 MgCl2, 10 HEPES, adjusted pH 7.4 with NaOH. The pipette solution contained the following (in mM): 140 KCl, 2 MgCl2, 10 HEPES, 10 glucose, 10 EGTA, and 1 Mg-ATP adjusted at pH 7.4 with KOH (Diochot et al., [1998]). All experiments were performed in the presence of 50 nM tetrodotoxin (TTX) and 10 μ M nimodipine in the extracellular solution. To discriminate K^+ current components appropriate electrophysiological protocols were used (Pannaccione et al., [2007]). Steady-state activation and inactivation properties were measured by using appropriate protocols (Pannaccione et al., [2005]). Capacitive currents were elicited by 5-mV depolarizing pulses from −80 mV and acquired at a sampling rate of 50 kHz. The capacitance of the membrane was calculated according to the following equation: Cm = τc·Io/ΔEm (1-I∞/Io), where Cm is membrane capacitance, τc is the time constant of the membrane capacitance, Io is the maximum capacitance current value, ΔEm is the amplitude of the voltage step, and I∞ is the amplitude of the steady-state current. K^+ currents were recorded by patch-clamp technique in CHO and NGF-differentiated PC-12 cells using a commercially available amplifier (Axopatch 200B, Molecular Devices) and Digidata 1322A interface (Molecular Devices, USA). The whole-cell configuration of the patch-clamp technique was adopted using glass micropipettes with a resistance of 2.5-5.0 MΩ. Data were acquired and analyzed using the pClamp software (version 9, Molecular Devices).
For the acute treatment, each peptide has been added in the extracellular solution. For each cell, we first recorded K^+ currents as previously described, in the absence of peptides. After that, we switched from the extracellular solution without BDS-I peptides to the extracellular solution containing the BDS-I peptide. In these conditions, we recorded K^+ currents until the steady-state was reached. This protocol has been performed to test the effect on KV3.4 currents of each BDS-I fragment as well as of BDS-I[1-8scr].
To identify the smallest BDS-I amino acid sequence able to block Kv3.4 activity, we evaluated the effect of the newly synthesized BDS-I fragments in CHO cells transiently transfected with Kv3.4/MiRP2, by patch clamp technique in whole cell configuration. […]

Substance	ability to inhibit Kv3.4 currents (in words)
H-GDLWILRG-OH [BDS-I[13-20], overlapping 8-amino-acid fragment of BDS-I]	did not
H-GYGYTSNA-OH [BDS-I[25-32], overlapping 8-amino-acid fragment of BDS-I]	did not
H-NAYKWPNI-OH [BDS-I[31-38], overlapping 8-amino-acid fragment of BDS-I]	did not
H-NIAAYPH-OH [BDS-I[37-43], C-terminal 7-amino-acid fragment of BDS-I]	did not
H-RGTAPGGY-OH [BDS-I[19-26], overlapping 8-amino-acid fragment of BDS-I]	did not
H-SGKPGRGD-OH [BDS-I[7-14], overlapping 8-amino-acid fragment of BDS-I]	did not

From publication PMC6629785, “Synthesis and Pharmacological Evaluation of a Novel Peptide Based on Anemonia sulcata BDS-I Toxin as a New KV3.4 Inhibitor Exerting a Neuroprotective Effect Against Amyloid-β Peptide” (Frontiers in Chemistry, 2019)
